Data: ChEMBL document CHEMBL4622939, “Synthesis and anti-proliferative activity of a novel 1,2,3-triazole tethered chalcone acetamide derivatives” (Bioorg Med Chem Lett, 2020)

Tests used:
Type in all cases: functional, cell-based
A549 = test: Antiproliferative activity against human A549 cells assessed as cell growth inhibition by MTT assay
SK-N-SH = test: Antiproliferative activity against human SK-N-SH cells assessed as cell growth inhibition by MTT assay
HeLa = test: Antiproliferative activity against human HeLa cells assessed as cell growth inhibition by MTT assay
MCF7 = test: Antiproliferative activity against human MCF7 cells assessed as cell growth inhibition by MTT assay

IC50 (A549) [µM] | IC50 (SK-N-SH) [µM] | IC50 (HeLa) [µM] | IC50 (MCF7) [µM] | SMILES
35.6 | 83.4 | 73.5 | 52.6 | CCCCCCCCCCn1cc(/C=C/C(=O)c2ccc(N)cc2)nn1
45.4 | 51.4 | 30.2 | 49.1 | CCCCCCCCn1cc(/C=C/C(=O)c2ccc(NC(=O)CN3CCN(c4ccc([N+](=O)[O-])cc4)CC3)cc2)nn1
34 | 21.5 | 26.8 | 30 | CCCCCCCCn1cc(/C=C/C(=O)c2ccc(NC(=O)CN3CCN(c4ccccc4OC)CC3)cc2)nn1
42.1 | 72.4 | 79.7 | 49.2 | O=C(CN1CCN(c2ccccc2)CC1)Nc1ccc(C(=O)/C=C/c2cn(Cc3ccc(Br)cc3)nn2)cc1
26.9 | 28.8 | 26.9 | 31 | CCCCCCCCn1cc(/C=C/C(=O)c2ccc(N)cc2)nn1
38.4 | 25.8 | 18.9 | 31 | CC(C)(C)OC(=O)N1CCN(CC(=O)Nc2ccc(C(=O)/C=C/c3cn(Cc4ccc(Br)cc4)nn3)cc2)CC1
57 | 34.4 | 47.8 | 40.4 | CCCCCCCCCCn1cc(/C=C/C(=O)c2ccc(NC(=O)CN3CCN(c4ccccc4F)CC3)cc2)nn1
52.4 | 41.4 | 33.8 | 31.9 | CCCCCCCCn1cc(/C=C/C(=O)c2ccc(NC(=O)CN3CCN(c4ccccc4)CC3)cc2)nn1
43.3 | 38 | 32 | 98.4 | CCCCCCCCn1cc(/C=C/C(=O)c2ccc(NC(=O)CN3CCN(C(=O)OC(C)(C)C)CC3)cc2)nn1
45.5 | 26.4 | 26.6 | 31.6 | O=C(CN1CCN(c2ccc([N+](=O)[O-])cc2)CC1)Nc1ccc(C(=O)/C=C/c2cn(Cc3ccc(Br)cc3)nn2)cc1
9.74 | 8.68 | 7.41 | 9.76 | CCCCCCCCCCn1cc(/C=C/C(=O)c2ccc(NC(=O)CBr)cc2)nn1
67.7 | 33.3 | 71.7 | 55.2 | CCCCCCCCCCn1cc(/C=C/C(=O)c2ccc(NC(=O)CN3CCC(Cc4ccccc4)CC3)cc2)nn1
14.7 | 12.8 | 9.12 | 11.3 | O=C(CN1CCN(c2ccccc2F)CC1)Nc1ccc(C(=O)/C=C/c2cn(Cc3ccc(Br)cc3)nn2)cc1
11.6 | 8.46 | 8.42 | 12.9 | CCCCCCCCn1cc(/C=C/C(=O)c2ccc(NC(=O)CBr)cc2)nn1
40 | 42.9 | 41.9 | 54.5 | O=C(CN1CCC(Cc2ccccc2)CC1)Nc1ccc(C(=O)/C=C/c2cn(Cc3ccc(Br)cc3)nn2)cc1
47.1 | 60.3 | 33.8 | 68.6 | CCCCCCCCn1cc(/C=C/C(=O)c2ccc(NC(=O)CN3CCN(c4ccccc4F)CC3)cc2)nn1
52.1 | 39.5 | 59.1 | > 100 | CCCCCCCCCCn1cc(/C=C/C(=O)c2ccc(NC(=O)CN3CCN(c4ccccc4)CC3)cc2)nn1
45.4 | 77.8 | 30.2 | 40 | CCCCCCCCCCn1cc(/C=C/C(=O)c2ccc(NC(=O)CN3CCN(C(=O)OC(C)(C)C)CC3)cc2)nn1
15.8 | 25.2 | 16.4 | 25.3 | Nc1ccc(C(=O)/C=C/c2cn(Cc3ccc(Br)cc3)nn2)cc1
8.67 | 8.3 | 7.95 | 10.1 | O=C(CBr)Nc1ccc(C(=O)/C=C/c2cn(Cc3ccc(Br)cc3)nn2)cc1
34 | 28 | 26.4 | 36.8 | COc1ccccc1N1CCN(CC(=O)Nc2ccc(C(=O)/C=C/c3cn(Cc4ccc(Br)cc4)nn3)cc2)CC1
64.5 | 40.9 | 65.9 | 44.4 | CCCCCCCCCCn1cc(/C=C/C(=O)c2ccc(NC(=O)CN3CCN(c4ccc([N+](=O)[O-])cc4)CC3)cc2)nn1
62.5 | 87.6 | 50.8 | 44.8 | CCCCCCCCCCn1cc(/C=C/C(=O)c2ccc(NC(=O)CN3CCN(c4ccccc4OC)CC3)cc2)nn1
43.8 | 57 | 78.6 | 52.6 | CCCCCCCCn1cc(/C=C/C(=O)c2ccc(NC(=O)CN3CCC(Cc4ccccc4)CC3)cc2)nn1
3.24 | 2.85 | 2.78 | 3.7 | COc1cccc2c1C(=O)c1c(O)c3c(c(O)c1C2=O)C[C@@](O)(C(=O)CO)C[C@@H]3O[C@H]1C[C@H](N)[C@H](O)[C@H](C)O1 [DOXORUBICIN]
